From publication PMC9845330 (Communications Biology, 2023)
Non-standard residues stand in square brackets, D forms with d. Residues, ends and D or L forms follow the SMILES beside them. *: point of attachment. X1 = O=C(CCCC[C@@H]1SC[C@@H]2NC(=O)N[C@@H]21)NCCCOCCOCCOCCCN*; PEG12 = NCCOCCOCCOCCOCCOCCOCCOCCOCCOCCOCCOCCOCCC(=O)O

Experiments:
[1] = test system: H1299 cells; test: Cell binding and internalization by flow cytometry, relative (normalized) uptake of peptide-streptavidin-phycoerythrin; assay type: cell-based, human
Experimental: MGS4 was initially selected by phage display biopanning of a peptide library on live cells. […] As such, multivalent binding is often required. To ascertain whether multivalent binding is required for MGS4 internalization, monomeric (MGS4_V2) and tetrameric (MGS4_V1) peptides were synthesized and labeled as described (Supplementary Figure 1). After incubation of varying peptide concentrations on live cells, surface-bound peptide was removed by low pH washes, as well as trypsinization. Relative internalization was measured by flow cytometry to determine an EC50 value which represents the concentration of peptide producing half-maximal internalization. This measurement is dependent on the affinity of the peptide for its cellular target and the rate of internalization. This is a more accurate representation of the biological situation and useful in evaluating the peptides as drug delivery agents. As expected for receptor-mediated endocytosis, uptake of MGS4 is saturable with increasing concentration.
Fig. 1 Monomeric and tetrameric MGS4 have similar binding, internalization and subcellular location. a Binding and internalization of tetrameric MGS4_V1 and monomeric MGS4_V2 on live H1299 cells in culture. Cells were incubated with the peptide conjugated to streptavidin-phycoerythrin for 1 h at 37 °C. Non-internalized peptide was removed and the cells were analyzed by flow cytometry. b H1299 cells were incubated with MGS4_V1 or MGS4_V2 conjugated to streptavidin-Alexa Fluor 555 (red) for 1 h, washed, fixed and counterstained with WGA-Alexa Fluor 488 (green, cell membrane) and DAPI (blue, nuclei) and analyzed by fluorescence microscopy. The scale bar represents 20 µm. MGS4_V1 and MGS4_V2 internalize to a similar degree and localize to a similar destination. c Truncated monomeric MGS4 peptides have similar EC50 as the parental full-length peptide. Individual measurements are shown. The mean is shown as an “X” and black error bars represent standard error for a minimum of three experimental replicates (SEM). All original binding data and nonlinear regression analysis of the data are included in the supplementary materials.
Biotinylated peptide was conjugated to streptavidin-R-phycoerythrin or streptavidin-Alexa Fluor 647 (1:1 molar ratio) for 30 min. The open binding sites on streptavidin were quenched with RPMI 1640 and diluted to the indicated concentration. Tumor cells were grown to 90% confluency in a 12 well plate, then incubated with 500 µl peptide-dye conjugate at 37 °C. After 1 h, peptide was removed, and the cells were washed 3x with PBS (137 mM NaCl, 2.7 mM KCl, 10 mM Na2HPO4, 1.8 mM KH2PO4, pH 7.4), 2x with 0.1 M HCl-glycine pH2.2 in 0.9% NaCl, and 1x PBS rinse. Cells were removed by trypsinization. Flow cytometry was performed on a BD FACSCelesta, and data were analyzed on Flowing software. Cells were gated based on the forward and side scatter to include only viable cells and a minimum of 10,000 events were counted. A region containing <5% of the cells in the negative control was established, and relative peptide uptake by the mean fluorescence intensity of that population. For absolute peptide uptake per cell, a standard curve was generated using Quantum™ Alexa Fluor 647 microspheres (Bangs Laboratory, Fishers, IN). A representative linear regression showing the correlation of molecule equivalents soluble fluorophores (MESF) vs the mean fluorescence intensity (MFI) is shown in Supplemental Figure 6. Cells were gated based on the forward and side scatter to include only viable cells and a minimum of 10,000 events were counted. MFI was determined at 50% at peak height. Molecules internalized per cell were determined by the standard curve relating MESF to MFI and divided by the number dye molecules/MGS conjugate. An example is shown in supplemental Figure 7. GraphPad Prism® was used for non-linear regression curve fitting to calculate an EC50. […]

[2] = test system: Lysosome labelled H1299 cells; test: Colocalization with lysosomes by confocal microscopy; assay type: cell-based, human; settings: 24 h, Streptavidin Alexa Fluor 555 conjugate
Experimental: Lysosome-labelled cells (green) were treated with MGS4_V8-Streptavidin Alexa Fluor 555 for 30 min, 1 h, 4 h, or 24 h. Peptide-containing vesicles (red) are seen at 30 min separate from the labeled lysosomes, which by 1 h have started to colocalize with lysosomal vesicles (yellow). MGS4_V8 remains colocalized with lysosomes at 24 h with >70% of the signal colocalized with lysosomes (Fig. 3b). Trafficking, accumulation, and retention in the lysosomes is even more evident in the compressed maximally projected z-stack of the cells (Fig. 3c). Of note, lysosomal regeneration is observed at 24 h as witnessed by increased green signal from the GFP that is not colocalized with previously internalized MGS4_V8. […]
The time course for lysosomal accumulation was performed by imaging at indicated time points using biotinylated peptide conjugated to Streptavidin-Alexa Fluor 555, Streptavidin-Qdot605, or streptavidin-saporin. Saporin was detected using anti-saporin rabbit polyclonal antibody AB-41AP (1:100 dilution) (Advanced Targeting Systems Bio, San Diego, CA). […] Each pixel of a single slice was evaluated for passing the threshold in red (box 1), green (box 2), or both (box3) for colocalization. Mander’s coefficients are calculated for each slice with 0 indicating no colocalization and 1 being complete colocalization.

Row | Compound | Bmax (best-fit) ([1]; Supplementary Table 2, normalized binding) | signal colocalized with lysosomes [2] [%] | EC50 (nM) ([1]; H1299 cells, 1 h at 37 °C, normalized uptake, one-site specific binding fit, Average ± SEM, minimum 3 replicates)
1 | CC(=O)N[C@@H](Cc1ccccc1)C(=O)N[C@@H](Cc1c[nH]cn1)C(=O)N[C@@H](C)C(=O)N[C@H](C(=O)N1CCC[C@H]1C(=O)N[C@@H](CCC(N)=O)C(=O)N[C@@H](CO)C(=O)N[C@@H](Cc1ccccc1)C(=O)N[C@@H](Cc1ccc(O)cc1)C(=O)N[C@H](C(=O)NCCOCCOCCOCCOCCOCCOCCOCCOCCOCCOCCOCCOCCC(=O)N[C@@H](CCC(=O)NCCCOCCOCCOCCCNC(=O)CCCC[C@@H]1SC[C@@H]2NC(=O)N[C@@H]21)C(N)=O)[C@@H](C)O)C(C)C [MGS4_V8] (Ac-FHAVPQSFYT[PEG12]E(X1)-NH2) | 1.423 | > 70 | –
2 | *HAVPQSFYT** [MGS4_V6] | – | – | Not Detected^2
